Test results from EP4467141A1, “PYRAZOLO-QUINOLINES AS SELECTIVE INHIBITORS OF GENOTOXIC STRESS-INDUCED IKK/NF- KB PATHWAYS FOR CANCER THERAPY” (Max-Delbrück-Centrum für Molekulare Medizin in der …, priority 2023, dated 2024).
Like-named read-outs stand apart in the source and are kept apart here. Values belong to the compound of their own block, whether it stands above or below them.

Assays:
Assay in all cases: Kinase panel study
Format in all cases: biochemical
CSF1R (FMS) = target: T1, CSF1R (FMS) (Homo sapiens, UniProt P07333)
T1 construct: purchased Thermo Fisher Scientific
Method: (§1) The Kinase panel study was entirely provided by Thermo Fisher Scientific using the two lead compounds MW01 and MW05 as well as their derivatives (MW01-E06, MW01-E10, MW01-E14, MW01-E18, MW05-E2, MW05-E3, MW05-E9 and MW05-E10. The experiment was performed using the ZLyte or Adapta protocol according to manufacturer standard operating procedures.
(§2) Based on their similar effects in our screen and molecular analysis, MW01 and MW05 were used in comparative target deconvolution studies seeking common targets despite their distinct structures. To eliminate previously identified kinases regulating NF-κB activity, such as IKK, as possible targets of MW01 and MW05, an in vitro kinase inhibition assay was performed. […] We next investigated if any of the shared kinase targets of MW01 and MW05 play a role in genotoxic stress-induced NF-κB activity and established several criteria to narrow down pathway-relevant targets. Considering the similar NF-κB inhibition phenotypes of both compounds, we hypothesized first that the target should be shared by both lead compounds. Second, based on the CaCo2 recovery values and experimental treatment concentration of 10 µM), the putative target kinase should have a low IC50 of, at most, 2000 nM for both lead compounds in the in vitro kinase panel (Fig. 2A). Based on these criteria alone, we arrived at a relatively short list of potential targets for further analysis, leaving only PIK3CG, PIK3C2G, and CLK2 (Fig. 2B). IC50 values for PIK3C2G by both lead compounds agreed best with these criteria, but RNA expression analysis indicates high tissue specificity as well as lack of expression of this kinase in our U2-OS model cell line, which we then eliminated from further analysis (Uhlén et al., 2015). […] Table 6: Percentage of inhibition of the indicated kinases by MW01 or MW05 at either 10 µM or 1 µM. n.d. = not determined.

BTK = target: T2, BTK (Homo sapiens, UniProt Q06187)
T2 construct: purchased Thermo Fisher Scientific
Method: as §1, §2

PI4K2A (PI4K2 alpha) = target: T3, PI4K2A (PI4K2 alpha) (Homo sapiens, UniProt Q9BTU6)
T3 construct: purchased Thermo Fisher Scientific
Method: as §1, §2

PIK3C2A (PI3K-C2 alpha) = target: T4, PIK3C2A (PI3K-C2 alpha) (Homo sapiens, UniProt O00443)
T4 construct: purchased Thermo Fisher Scientific
Method: as §1, §2

DYRK1A = target: T5, DYRK1A (Homo sapiens, UniProt Q13627)
T5 construct: purchased Thermo Fisher Scientific
Method: as §1, §2

ALK = target: T6, ALK (Homo sapiens, UniProt Q9UM73)
T6 construct: purchased Thermo Fisher Scientific
Method: as §1, §2

PI4KB (PI4K beta) = target: T7, PI4KB (PI4K beta) (Homo sapiens, UniProt Q9UBF8)
T7 construct: purchased Thermo Fisher Scientific
Method: as §1, §2

EGFR (ErbB1) = target: T8, EGFR (ErbB1) (Homo sapiens, UniProt P00533)
T8 construct: purchased Thermo Fisher Scientific
Method: as §1, §2

[1] = target: T9, PIK3CA/PIK3R1 (p11 0 alpha/p85 alpha) (Homo sapiens, UniProt P42336)
T9 construct: purchased Thermo Fisher Scientific
Method: as §1, §2

PIP5K1A = target: T10, PIP5K1A (Homo sapiens, UniProt Q99755)
T10 construct: purchased Thermo Fisher Scientific
Method: as §1, §2

BLK = target: T11, BLK (Homo sapiens, UniProt P51451)
T11 construct: purchased Thermo Fisher Scientific
Method: as §1, §2

[2] = target: T12, PIK3CA/PIK3R3 (p11 0 alpha/p55 gamma) (Homo sapiens, UniProt P42336)
T12 construct: purchased Thermo Fisher Scientific
Method: as §1, §2

DYRK1B = target: T13, DYRK1B (Homo sapiens, UniProt Q9Y463)
T13 construct: purchased Thermo Fisher Scientific
Method: as §1, §2

IRAK1 = target: T14, IRAK1 (Homo sapiens, UniProt P51617)
T14 construct: purchased Thermo Fisher Scientific
Method: as §1, §2

PIP5K1C = target: T15, PIP5K1C (Homo sapiens, UniProt O60331)
T15 construct: purchased Thermo Fisher Scientific
Method: as §1, §2

LRRK2 = target: T16, LRRK2 (Homo sapiens, UniProt Q5S007)
T16 construct: purchased Thermo Fisher Scientific
Method: as §1, §2

GSG2 (Haspin) = target: T17, GSG2 (Haspin) (Homo sapiens, UniProt Q8TF76)
T17 construct: purchased Thermo Fisher Scientific
T17 sequence (Q8TF76 1-798): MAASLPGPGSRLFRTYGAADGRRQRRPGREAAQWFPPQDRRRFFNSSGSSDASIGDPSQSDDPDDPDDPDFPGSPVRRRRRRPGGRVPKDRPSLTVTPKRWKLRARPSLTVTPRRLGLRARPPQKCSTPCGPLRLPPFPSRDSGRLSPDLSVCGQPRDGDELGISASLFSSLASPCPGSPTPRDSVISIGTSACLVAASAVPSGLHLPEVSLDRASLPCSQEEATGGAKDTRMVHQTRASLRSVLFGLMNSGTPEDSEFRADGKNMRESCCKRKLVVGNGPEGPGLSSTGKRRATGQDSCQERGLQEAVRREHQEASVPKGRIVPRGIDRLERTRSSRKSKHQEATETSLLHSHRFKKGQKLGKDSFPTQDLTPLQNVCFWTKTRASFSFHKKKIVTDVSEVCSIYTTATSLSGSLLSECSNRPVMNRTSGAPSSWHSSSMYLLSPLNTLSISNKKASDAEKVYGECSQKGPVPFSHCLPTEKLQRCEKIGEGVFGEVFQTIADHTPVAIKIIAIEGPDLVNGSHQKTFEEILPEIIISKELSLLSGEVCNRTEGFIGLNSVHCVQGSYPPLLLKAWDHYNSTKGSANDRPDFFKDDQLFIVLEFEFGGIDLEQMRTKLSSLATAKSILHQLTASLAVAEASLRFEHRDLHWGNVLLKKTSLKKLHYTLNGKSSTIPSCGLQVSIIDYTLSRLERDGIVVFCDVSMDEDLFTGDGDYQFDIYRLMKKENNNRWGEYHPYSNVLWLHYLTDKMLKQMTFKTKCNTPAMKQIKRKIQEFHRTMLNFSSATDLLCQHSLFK
Method: as §1, §2

MINK1 = target: T18, MINK1 (Homo sapiens, UniProt Q8N4C8)
T18 construct: purchased Thermo Fisher Scientific
Method: as §1, §2

AKT2 (PKB beta) = target: T19, AKT2 (PKB beta) (Homo sapiens, UniProt P31751)
T19 construct: purchased Thermo Fisher Scientific
Method: as §1, §2

PIP5K1B = target: T20, PIP5K1B (Homo sapiens, UniProt O14986)
T20 construct: purchased Thermo Fisher Scientific
Method: as §1, §2

[3] = 1000nM, read-out: Percentage of inhibition
[4] = 10000nM, read-out: Percentage of inhibition

T3 sequence (Q9BTU6 whole entry): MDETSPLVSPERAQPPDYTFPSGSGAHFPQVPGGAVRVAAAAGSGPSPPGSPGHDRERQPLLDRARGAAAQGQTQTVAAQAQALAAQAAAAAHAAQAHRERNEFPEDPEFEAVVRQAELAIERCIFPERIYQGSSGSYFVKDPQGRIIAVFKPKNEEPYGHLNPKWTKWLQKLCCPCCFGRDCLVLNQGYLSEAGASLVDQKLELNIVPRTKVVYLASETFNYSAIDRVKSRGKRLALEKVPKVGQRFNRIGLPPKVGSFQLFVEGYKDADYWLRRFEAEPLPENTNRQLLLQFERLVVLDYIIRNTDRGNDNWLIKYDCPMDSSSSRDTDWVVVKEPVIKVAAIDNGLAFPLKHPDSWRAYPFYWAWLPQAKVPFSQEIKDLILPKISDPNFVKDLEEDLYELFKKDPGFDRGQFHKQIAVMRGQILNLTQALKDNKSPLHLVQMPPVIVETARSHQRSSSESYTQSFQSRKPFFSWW
T20 sequence (O14986 whole entry): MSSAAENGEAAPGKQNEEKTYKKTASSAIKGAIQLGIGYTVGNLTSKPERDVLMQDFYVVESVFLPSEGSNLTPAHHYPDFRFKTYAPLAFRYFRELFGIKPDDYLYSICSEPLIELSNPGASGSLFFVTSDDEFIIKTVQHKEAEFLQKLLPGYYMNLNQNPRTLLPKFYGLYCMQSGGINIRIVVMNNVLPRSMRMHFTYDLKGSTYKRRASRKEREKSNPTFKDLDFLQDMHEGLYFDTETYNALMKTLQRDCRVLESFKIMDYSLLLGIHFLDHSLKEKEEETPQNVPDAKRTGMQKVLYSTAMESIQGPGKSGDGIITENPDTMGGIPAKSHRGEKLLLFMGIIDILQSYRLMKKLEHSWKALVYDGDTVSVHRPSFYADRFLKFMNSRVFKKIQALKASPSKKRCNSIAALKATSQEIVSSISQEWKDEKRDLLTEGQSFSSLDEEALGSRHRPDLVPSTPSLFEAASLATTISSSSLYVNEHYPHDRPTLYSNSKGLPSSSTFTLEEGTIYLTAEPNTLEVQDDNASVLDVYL
T2 sequence (Q06187 whole entry): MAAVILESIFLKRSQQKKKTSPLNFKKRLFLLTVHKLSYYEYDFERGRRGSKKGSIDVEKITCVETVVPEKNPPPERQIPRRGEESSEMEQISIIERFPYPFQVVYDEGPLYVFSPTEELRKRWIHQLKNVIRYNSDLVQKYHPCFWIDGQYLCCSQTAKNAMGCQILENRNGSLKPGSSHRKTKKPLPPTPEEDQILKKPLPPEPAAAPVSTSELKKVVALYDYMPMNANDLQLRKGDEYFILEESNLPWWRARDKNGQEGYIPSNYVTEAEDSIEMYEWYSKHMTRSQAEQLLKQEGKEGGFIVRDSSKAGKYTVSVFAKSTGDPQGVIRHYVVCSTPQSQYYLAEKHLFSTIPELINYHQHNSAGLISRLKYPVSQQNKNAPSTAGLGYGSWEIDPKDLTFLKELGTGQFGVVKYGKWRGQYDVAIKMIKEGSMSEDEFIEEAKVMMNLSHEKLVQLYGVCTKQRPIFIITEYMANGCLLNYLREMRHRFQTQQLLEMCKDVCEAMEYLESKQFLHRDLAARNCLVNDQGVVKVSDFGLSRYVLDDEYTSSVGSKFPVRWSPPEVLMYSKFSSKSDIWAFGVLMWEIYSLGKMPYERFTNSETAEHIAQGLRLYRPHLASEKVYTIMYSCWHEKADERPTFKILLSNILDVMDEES
T4 sequence (O00443 whole entry): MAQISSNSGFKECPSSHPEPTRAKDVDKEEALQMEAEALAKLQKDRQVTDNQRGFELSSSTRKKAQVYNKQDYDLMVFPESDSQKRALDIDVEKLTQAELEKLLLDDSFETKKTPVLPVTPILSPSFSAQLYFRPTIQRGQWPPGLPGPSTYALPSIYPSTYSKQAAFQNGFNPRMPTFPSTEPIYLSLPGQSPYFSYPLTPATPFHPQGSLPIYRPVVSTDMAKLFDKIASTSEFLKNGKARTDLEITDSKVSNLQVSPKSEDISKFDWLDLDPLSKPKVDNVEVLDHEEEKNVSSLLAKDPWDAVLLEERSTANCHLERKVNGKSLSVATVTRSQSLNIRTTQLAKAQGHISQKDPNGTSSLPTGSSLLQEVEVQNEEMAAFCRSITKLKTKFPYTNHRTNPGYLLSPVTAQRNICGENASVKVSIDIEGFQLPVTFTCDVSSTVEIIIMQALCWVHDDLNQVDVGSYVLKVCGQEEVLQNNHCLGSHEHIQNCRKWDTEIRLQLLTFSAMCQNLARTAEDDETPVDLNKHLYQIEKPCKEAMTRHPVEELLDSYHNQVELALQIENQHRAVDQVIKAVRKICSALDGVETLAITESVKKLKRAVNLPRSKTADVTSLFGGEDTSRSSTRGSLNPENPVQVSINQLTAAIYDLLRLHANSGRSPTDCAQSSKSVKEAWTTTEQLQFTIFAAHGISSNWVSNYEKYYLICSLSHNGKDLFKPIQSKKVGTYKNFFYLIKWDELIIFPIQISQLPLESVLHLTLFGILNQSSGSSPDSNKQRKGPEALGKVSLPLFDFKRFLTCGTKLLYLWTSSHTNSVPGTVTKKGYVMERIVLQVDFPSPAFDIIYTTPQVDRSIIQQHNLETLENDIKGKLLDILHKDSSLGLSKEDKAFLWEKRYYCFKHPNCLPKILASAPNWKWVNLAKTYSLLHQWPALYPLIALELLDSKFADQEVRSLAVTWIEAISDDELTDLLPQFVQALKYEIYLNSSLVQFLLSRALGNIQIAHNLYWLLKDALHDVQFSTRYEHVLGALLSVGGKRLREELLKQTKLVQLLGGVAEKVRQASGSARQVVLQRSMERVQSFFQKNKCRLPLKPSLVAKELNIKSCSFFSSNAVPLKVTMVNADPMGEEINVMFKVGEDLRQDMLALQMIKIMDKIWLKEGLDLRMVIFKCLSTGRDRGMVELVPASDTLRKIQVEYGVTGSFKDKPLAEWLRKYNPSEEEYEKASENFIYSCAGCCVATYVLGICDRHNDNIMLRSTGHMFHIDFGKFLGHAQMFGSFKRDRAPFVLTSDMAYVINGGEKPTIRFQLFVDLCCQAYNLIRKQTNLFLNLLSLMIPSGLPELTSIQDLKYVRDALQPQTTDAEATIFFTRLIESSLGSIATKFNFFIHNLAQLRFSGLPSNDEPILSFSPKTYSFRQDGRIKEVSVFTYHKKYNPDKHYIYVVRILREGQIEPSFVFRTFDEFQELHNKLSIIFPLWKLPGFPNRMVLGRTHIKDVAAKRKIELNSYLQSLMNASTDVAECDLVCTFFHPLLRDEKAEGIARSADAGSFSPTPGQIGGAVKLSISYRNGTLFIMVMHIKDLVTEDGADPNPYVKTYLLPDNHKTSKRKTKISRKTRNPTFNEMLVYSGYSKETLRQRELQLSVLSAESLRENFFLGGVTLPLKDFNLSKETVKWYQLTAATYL
T8 sequence (P00533 25-1210): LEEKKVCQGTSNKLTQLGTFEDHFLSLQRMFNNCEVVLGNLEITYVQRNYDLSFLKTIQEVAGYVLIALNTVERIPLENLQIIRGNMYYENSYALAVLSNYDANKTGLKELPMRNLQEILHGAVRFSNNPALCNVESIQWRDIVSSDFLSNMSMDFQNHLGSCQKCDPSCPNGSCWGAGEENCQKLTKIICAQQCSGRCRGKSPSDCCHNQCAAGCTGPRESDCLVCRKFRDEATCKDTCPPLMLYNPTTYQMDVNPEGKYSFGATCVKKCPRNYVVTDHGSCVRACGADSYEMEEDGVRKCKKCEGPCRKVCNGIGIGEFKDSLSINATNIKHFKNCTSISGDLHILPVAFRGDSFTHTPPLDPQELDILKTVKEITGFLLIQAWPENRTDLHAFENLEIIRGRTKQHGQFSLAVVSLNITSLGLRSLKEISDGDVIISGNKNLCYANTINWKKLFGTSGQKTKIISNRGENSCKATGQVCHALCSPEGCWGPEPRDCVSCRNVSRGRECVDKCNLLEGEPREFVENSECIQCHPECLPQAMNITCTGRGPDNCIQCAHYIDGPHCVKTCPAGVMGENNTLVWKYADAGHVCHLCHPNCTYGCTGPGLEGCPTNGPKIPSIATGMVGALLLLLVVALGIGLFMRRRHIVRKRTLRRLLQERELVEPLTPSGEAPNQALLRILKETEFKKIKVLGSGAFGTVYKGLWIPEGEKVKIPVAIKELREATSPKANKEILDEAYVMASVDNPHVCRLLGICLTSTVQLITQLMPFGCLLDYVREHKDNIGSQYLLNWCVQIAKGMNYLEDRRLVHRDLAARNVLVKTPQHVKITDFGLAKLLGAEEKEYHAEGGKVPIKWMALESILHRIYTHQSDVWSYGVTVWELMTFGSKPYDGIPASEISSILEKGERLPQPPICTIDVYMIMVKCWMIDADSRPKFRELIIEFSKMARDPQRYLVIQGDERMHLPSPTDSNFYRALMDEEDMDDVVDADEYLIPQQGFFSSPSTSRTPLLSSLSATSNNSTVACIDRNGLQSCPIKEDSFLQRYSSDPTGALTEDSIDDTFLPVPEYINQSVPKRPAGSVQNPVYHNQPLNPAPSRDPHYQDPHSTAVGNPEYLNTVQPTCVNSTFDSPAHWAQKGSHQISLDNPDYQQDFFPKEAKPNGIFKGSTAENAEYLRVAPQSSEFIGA
T19 sequence (P31751 whole entry): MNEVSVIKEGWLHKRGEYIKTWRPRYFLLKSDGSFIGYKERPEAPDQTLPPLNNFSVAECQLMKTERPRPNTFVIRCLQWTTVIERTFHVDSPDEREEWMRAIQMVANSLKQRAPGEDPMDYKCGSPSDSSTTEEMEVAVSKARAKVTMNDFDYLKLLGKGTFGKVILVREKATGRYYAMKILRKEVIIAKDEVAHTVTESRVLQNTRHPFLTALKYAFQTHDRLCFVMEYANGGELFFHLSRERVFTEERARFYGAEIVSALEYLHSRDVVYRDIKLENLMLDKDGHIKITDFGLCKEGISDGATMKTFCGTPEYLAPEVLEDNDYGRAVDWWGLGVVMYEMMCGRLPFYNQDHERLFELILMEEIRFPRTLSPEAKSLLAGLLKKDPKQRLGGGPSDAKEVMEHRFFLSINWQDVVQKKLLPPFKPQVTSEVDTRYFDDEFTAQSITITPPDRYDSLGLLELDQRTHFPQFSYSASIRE

Structure (SMILES): COc1ccc2cc3c(N)nn(C(=O)c4cccc(N(C)C)c4)c3nc2c1 [MW05, (3-Amino-7-methoxypyrazolo[3,4-b]quinolin-1-yl)-[3-(dimethylamino)phenyl]methanone]
inhibition at 1 µM (CSF1R (FMS); [3]): 5%
inhibition at 10 µM (CSF1R (FMS); [4]): -6%
inhibition at 1 µM (BTK; [3]): 5%
inhibition at 10 µM (BTK; [4]): 8%
inhibition at 1 µM (PI4K2A (PI4K2 alpha); [3]): -7%
inhibition at 10 µM (PI4K2A (PI4K2 alpha); [4]): -1%
inhibition at 1 µM (PIK3C2A (PI3K-C2 alpha); [3]): -5%
inhibition at 10 µM (PIK3C2A (PI3K-C2 alpha); [4]): 1%
inhibition at 1 µM (DYRK1A; [3]): 22%
inhibition at 10 µM (DYRK1A; [4]): 60%
inhibition at 1 µM (ALK; [3]): 0%
inhibition at 10 µM (ALK; [4]): -2%
inhibition at 1 µM (PI4KB (PI4K beta); [3]): -2%
inhibition at 10 µM (PI4KB (PI4K beta); [4]): 43%
inhibition at 1 µM (EGFR (ErbB1); [3]): 13%
inhibition at 10 µM (EGFR (ErbB1); [4]): 5%
inhibition at 1 µM [1, 3]: 14%
inhibition at 10 µM [1, 4]: 52%
inhibition at 1 µM (PIP5K1A; [3]): -6%
inhibition at 10 µM (PIP5K1A; [4]): 5%
inhibition at 1 µM (BLK; [3]): 0%
inhibition at 10 µM (BLK; [4]): -1%
inhibition at 1 µM [2, 3]: 16%
inhibition at 10 µM [2, 4]: 63%
inhibition at 1 µM (DYRK1B; [3]): 28%
inhibition at 10 µM (DYRK1B; [4]): 69%
inhibition at 1 µM (IRAK1; [3]): 17%
inhibition at 10 µM (IRAK1; [4]): -7%
inhibition at 1 µM (PIP5K1C; [3]): -1%
inhibition at 10 µM (PIP5K1C; [4]): 26%
inhibition at 1 µM (LRRK2; [3]): -3%
inhibition at 10 µM (LRRK2; [4]): 5%
inhibition at 1 µM (GSG2 (Haspin); [3]): 4%
inhibition at 10 µM (GSG2 (Haspin); [4]): 20%
inhibition at 1 µM (MINK1; [3]): 20%
inhibition at 10 µM (MINK1; [4]): 9%
inhibition at 1 µM (AKT2 (PKB beta); [3]): 10%
inhibition at 10 µM (AKT2 (PKB beta); [4]): -8%
inhibition at 1 µM (PIP5K1B; [3]): -13%
inhibition at 10 µM (PIP5K1B; [4]): 7%

inhibition at 10 µM (CSF1R (FMS); CSF1R (FMS), compound at 10µM, read-out: % of Inhibition): 57%
inhibition at 10 µM (BTK; BTK, compound at 10µM, read-out: % of Inhibition): 30%
inhibition at 10 µM (PI4K2A (PI4K2 alpha); PI4K2A (PI4K2 alpha), compound at 10µM, read-out: % of Inhibition): 30%
inhibition at 10 µM (PIK3C2A (PI3K-C2 alpha); PIK3C2A (PI3K-C2 alpha), compound at 10µM, read-out: % of Inhibition): 44%
inhibition at 10 µM (DYRK1A; DYRK1A, compound at 10µM, read-out: % of Inhibition): 65%
inhibition at 10 µM (ALK; ALK, compound at 10µM, read-out: % of Inhibition): 35%
inhibition at 10 µM (PI4KB (PI4K beta); PI4KB (PI4K beta), compound at 10µM, read-out: % of Inhibition): 81%
inhibition at 10 µM (EGFR (ErbB1); EGFR (ErbB1), compound at 10µM, read-out: % of Inhibition): 14%
inhibition at 10 µM ([1]; PIK3CA/PIK3R1, compound at 10µM, read-out: % of Inhibition): 90%
inhibition at 10 µM (PIP5K1A; PIP5K1A, compound at 10µM, read-out: % of Inhibition): 28%
inhibition at 10 µM (BLK; BLK, compound at 10µM, read-out: % of Inhibition): 23%
inhibition at 10 µM ([2]; PIK3CA/PIK3R3, compound at 10µM, read-out: % of Inhibition): 94%
inhibition at 10 µM (DYRK1B; DYRK1B, compound at 10µM, read-out: % of Inhibition): 68%
inhibition at 10 µM (IRAK1; IRAK1, compound at 10µM, read-out: % of Inhibition): 69%
inhibition at 10 µM (PIP5K1C; PIP5K1C, compound at 10µM, read-out: % of Inhibition): 27%
inhibition at 10 µM (LRRK2; LRRK2, compound at 10µM, read-out: % of Inhibition): 75%
inhibition at 10 µM (GSG2 (Haspin); GSG2 (Haspin), compound at 10µM, read-out: % of Inhibition): 88%
inhibition at 10 µM (MINK1; MINK1, compound at 10µM, read-out: % of Inhibition): 85%
inhibition at 10 µM (AKT2 (PKB beta); AKT2 (PKB beta), compound at 10µM, read-out: % of Inhibition): 3%
inhibition at 10 µM (PIP5K1B; PIP5K1B, compound at 10µM, read-out: % of Inhibition): -3%
Structure (SMILES): O=c1c2cnccc2c2nccc3c4cc(O)ccc4n1c32 [MW01-E18, 5-hydroxy-1,11,16-triazapentacyclo[10.7.1.0^2,^7.0^8,^20.0^13,^18]icosa-2(7),3,5,8(20),9,11,13(18),14,16-nonaen-19-one]
